Laboratory results as given in publication PMC10143053, “Probing the Interactions of 31 Mycotoxins with Xanthine Oxidase: Alternariol, Alternariol-3-Sulfate, and α-Zearalenol Are Allosteric Inhibitors of the Enzyme” (Toxins, 2023).
Read-outs that look alike come from different tables or passages of the source.

Molecular target: T1, xanthine oxidase (Bos taurus, UniProt P80457)
T1 construct: gene XDH
Test: biochemical

T1 sequence (P80457 2-1332): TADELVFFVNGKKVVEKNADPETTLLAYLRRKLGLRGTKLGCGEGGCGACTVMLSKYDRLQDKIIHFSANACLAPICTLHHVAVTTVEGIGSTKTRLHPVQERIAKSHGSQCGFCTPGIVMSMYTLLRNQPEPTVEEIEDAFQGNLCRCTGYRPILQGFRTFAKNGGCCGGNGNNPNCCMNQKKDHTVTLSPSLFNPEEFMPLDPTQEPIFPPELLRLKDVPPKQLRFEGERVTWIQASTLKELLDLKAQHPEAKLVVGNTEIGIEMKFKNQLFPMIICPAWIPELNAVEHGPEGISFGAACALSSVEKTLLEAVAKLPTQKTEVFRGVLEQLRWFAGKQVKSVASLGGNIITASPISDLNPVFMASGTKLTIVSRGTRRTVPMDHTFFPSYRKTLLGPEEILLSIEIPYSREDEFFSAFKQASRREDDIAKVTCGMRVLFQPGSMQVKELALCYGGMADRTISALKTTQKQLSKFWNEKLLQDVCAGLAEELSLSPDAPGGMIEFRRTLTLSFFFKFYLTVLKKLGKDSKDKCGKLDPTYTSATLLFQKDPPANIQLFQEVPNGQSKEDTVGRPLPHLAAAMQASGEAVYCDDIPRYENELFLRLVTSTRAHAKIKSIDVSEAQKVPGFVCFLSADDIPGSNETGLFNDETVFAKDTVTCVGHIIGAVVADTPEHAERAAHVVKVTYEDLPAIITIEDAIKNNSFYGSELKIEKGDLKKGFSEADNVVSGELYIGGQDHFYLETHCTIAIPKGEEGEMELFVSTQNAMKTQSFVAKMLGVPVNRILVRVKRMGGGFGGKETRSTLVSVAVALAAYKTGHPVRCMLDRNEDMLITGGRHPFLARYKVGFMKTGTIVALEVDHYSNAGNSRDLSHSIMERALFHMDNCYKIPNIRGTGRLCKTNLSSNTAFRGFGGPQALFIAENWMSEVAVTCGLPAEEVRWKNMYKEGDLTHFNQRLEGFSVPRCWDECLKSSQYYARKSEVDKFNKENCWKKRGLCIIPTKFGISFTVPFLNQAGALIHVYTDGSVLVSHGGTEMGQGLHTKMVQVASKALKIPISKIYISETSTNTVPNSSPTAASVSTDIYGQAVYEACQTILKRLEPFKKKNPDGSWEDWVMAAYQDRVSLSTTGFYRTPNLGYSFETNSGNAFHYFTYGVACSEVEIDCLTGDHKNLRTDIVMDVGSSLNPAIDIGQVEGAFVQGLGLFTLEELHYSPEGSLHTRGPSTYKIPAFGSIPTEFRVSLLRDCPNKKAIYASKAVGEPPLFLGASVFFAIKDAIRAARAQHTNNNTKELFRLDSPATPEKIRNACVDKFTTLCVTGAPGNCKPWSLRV

| Structure (SMILES) | IC50 (read-out: IC50) [µM] | IC50 [µM] |
| --- | --- | --- |
| C[C@H]1CCC[C@H](O)CCC/C=C/c2cc(O)cc(O)c2C(=O)O1 [α-ZEL, α-zearalenol] | 17.1 |  |
| Cc1cc(OS(=O)(=O)O)cc2oc(=O)c3c(O)cc(O)cc3c12 [AS, alternariol-3-sulfate] | 15 |  |
| Cc1cc(O)cc2oc(=O)c3c(O)cc(O)cc3c12 [AOH, alternariol] |  | 10.6 |
